According to patent publication EP4177246A1, “FUSED OXAZEPINES AS INHIBITORS OF PEROXIREDOXINS” (Centro Atlántico del Medicamento, SA, priority 2021, dated 2023):

Assays:
K562 = assay: MTT cell viability assay, K562 cells; format: cell-based; conditions: Homo sapiens, 48 h drug exposure
Summary of the method: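 Human CML-derived K562 cells seeded at 1000-5000/well with 10% FBS, treated after 24 h with compound (10 to 0,01 µM) or 0.05% DMSO vehicle for 48 h. MTT (0.3 mg/ml) added 2-4 h at 37 °C, formazan dissolved in DMSO, OD 595 nm; IC50 from non-linear regression, 3 replicates.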

HEL 92.1.7 = assay: MTT cell viability assay, HEL cells; format: cell-based; conditions: Homo sapiens, 48 h drug exposure
Summary of the method: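 Human erythroleukemia HEL 92.1.7 cells, 1000-5000 cells/well in 10% FBS medium, treated 24 h after seeding with compound (10 to 0,01microM) or 0.05% DMSO for 48 h. MTT (0.3 mg/ml) 2-4h at 37 °C, OD 595 nm; IC50 by non-linear regression of log concentration vs normalized response, 3 replicates.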

PRDX1 = molecular target: T1, PRDX1 (Homo sapiens, UniProt Q06830); assay: Competitive immunoprecipitation / immunoblot for PRDX1 with compound-coupled resin; format: binding; conditions: untreated MDA-MB-231 cell lysates; not trapped from lysates pre-treated with unbound compound
T1 construct: treatment of untreated MDA-MB-231 cell lysates with a resin coupled to compound 24; endogenous in cells; host or cells: MDA-MB-231 (ATCC HTB-26)
T1 sequence (Q06830 1-199): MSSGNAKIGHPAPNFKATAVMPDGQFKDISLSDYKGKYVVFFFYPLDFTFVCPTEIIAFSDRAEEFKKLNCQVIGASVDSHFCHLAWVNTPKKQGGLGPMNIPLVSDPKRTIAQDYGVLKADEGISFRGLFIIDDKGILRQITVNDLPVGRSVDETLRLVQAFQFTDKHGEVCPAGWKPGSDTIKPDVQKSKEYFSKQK
Description: As indicated in the brief description of the figures, the treatment of untreated MDA-MB-231 cell lysates with a resin coupled to compound 24 (24-coupled resin) were subjected to immunoprecipitation analysis for PRDX1 [for the methodology to perform immunoprecipitation and western blot analysis of PRDXs see Am J Physiol Heart Circ Physiol. 2008 Jul; 295(1): H425-H433 (ref. 34); and Oncogene. 2013 November 7; 32(45): 5302-5314 (ref. 35)].

[1] = test system: JNK, p38, AKT, ERK1/2, STAT3; assay: Immunoblot of phosphorylated MAPKs, STAT3 and Akt in treated TNBC cells; format: cell-based, human; conditions: MDA-MB-231 5 µM, 1 h, BT-549 1 µM, 3 h
Experimental: MDA-MB-231 cells were incubated with compound 24 (5 µM, 1 h), then washed with cold PBS-vanadate (1 mM). The same process was done with BT-549 cells with the exception that the cells were incubated with compound 24 at 1 µM of 3 h. PRDX1 knockdown cells, or compound 24 treated cells, were then lysed with cold RIPA containing protease and phosphatase inhibitors or with a buffer containing 20 mM Tris-HCI, pH = 7, 140 mM NaCl, 50 mM EDTA, 10% glycerol, 1% NP-40, and protease and phosphatase inhibitors. Lysates were centrifuged at 20,000 × g, at 4 °C for 10 min, and supernatants were collected. Protein concentration of lysis extracts was measured by BCA. Electrophoresis sample buffer containing 10% β-mercaptoethanol was added to 60 µg of extracts. In the case of non-reducing electrophoresis, cells were incubated with cold PBS containing 25 mM NEM for 30 min before lysis, and β-mercaptoethanol was omitted in the electrophoresis sample buffer. Samples were separated by sodium dodecyl sulfate - polyacrylamide gel electrophoresis (SDS-PAGE) and transferred onto nitrocellulose or PVDF (polyvinylidene difluoride) membranes. […] Protein bands were visualized with the Immun-Star Western chemiluminescence kit (Bio-rad) using the ChemiDoc XRS System and the image analysis program Quantity One (Bio-Rad). […]

MDA-MB-231 = assay: MTT cell viability assay, MDA-MB-231 cells; format: cell-based, human; conditions: Homo sapiens, 48 h drug exposure
Summary of the method: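 MDA-MB-231 cells seeded in FBS-supplemented medium, treated after 24 h with compound (10 to 0,01 µM; vehicle 0.05% DMSO) for 48 h at 37 °C. MTT (0.3 mg/ml) added for 2-4 h, formazan dissolved in DMSO, OD read at 595 nm. IC50 from non-linear regression of log concentration vs normalized response.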

MCF-7 = assay: MTT cell viability assay, MCF-7 cells; format: cell-based; conditions: Homo sapiens, MCF7, 48 h drug exposure
Experimental: Cell viability was assayed by measuring the mitochondrial reduction of the tetrazolium salt 3-(4,5-methyltiazol-2yl)-2,5diphenyl-tetrazolium bromide] (MTT) (Applichen; A2231,0010) [Mosmann T. J Immunol Methods. 1983 16;65(1-2):55-63 (ref. 36); Chuan Y-C et al 2010. Oncogene. 29 (10), 1531-1542 (ref. 37)]. Cells were seeded in 96-well plates in medium (either RPMI, DMEM or McCoys depending on the recommendations from the ATCC) supplemented with 10% FBS (Lonza Cat. N°: 14-502F), 2mM L-Glut (Lonza Cat. N°: BE17-605E) and 100U/ml PEST (Lonza Cat. N°: DE17-605E) at a cell density of 1000-5000 cells/well (96 well plate). Cells were seeded at a density according to their exponential growth phase (normally 1000 to 5000/well). The cells were cultured at 37 °C in the dark in air containing 5% CO2. After 24h either vehicle (0.05% DMSO) or drug were added to culture medium at the indicated concentrations (10 to 0,01microM). After another 48 h, MTT (0.3 mg/ml) was added to cells, followed by incubation for 2-4h at 37 °C in the dark. The medium was then removed and the precipitated formazan was solubilized by the addition of DMSO (200 µL).
The optical density was measured at 595 nm with the iMark Microplate Reader (BioRad, USA). Data was expressed as percent growth above the level in controls and the results in figures were plotted as means ± SEM of each test point from 3 replicates.
Statistical analysis. The concentration of drug that provokes 50% reduction of cell viability (IC50) was determined by using non-linear regression analysis and data were fitted to a log concentration vs normalized response curve in GraphPad software v5 (San Diego, CA).

IC50 (K562): 0.1 µM
IC50 (MDA-MB-231): 0.09 µM
IC50 (MCF-7): 1.72 µM
SMILES: O=C1C2=C(C(=O)c3c(O)ccc(O)c31)N(c1cccnc1)Cc1ccccc1O2 [Compound 24, 7,10-dihydroxy-12-(pyridin-3-yl)-12,13-dihydrobenzo[f]naphtho[2,3-b][1,4]oxazepine-6,11-dione]
IC50 (HEL 92.1.7): 0.09 µM
trapping of PRDX1 by compound-coupled resin (PRDX1): PRDX1 was clearly trapped by the 24-coupled resin
activation of STAT3 [1]: a decrease in the activation of STAT3
levels of activated JNK, p38, AKT and ERK1/2 [1]: an increase in the levels of activated JNK, p38, AKT and ERK1/2
